Molecules are shown by their SMILES.

The assay deals with AsOMT116. In words: Enzyme reaction of crude recombinant AsOMT116 with thujaplicatin and S-adenosylmethionine, product analysed by GC-MS. The format is biochemical, Anthrissus sylvestris. The note with it: 0.01 mM substrate, 0.04 mM S-adenosylmethionine, about 3 mg crude enzyme from E. coli, pH 7.5, 30° C., one hour; product identified as 5-methylthujaplicatin by GC-MS. As to the method: To clarify the biochemical enzyme functions, the enzymes were expressed in Escherichia coli. Using the plasmid for expression of AsOMT116 Escherichia coli obtained above, Escherichia coli BL21 (DE3) strain was transformed in a conventional manner. The resulting transformants were inoculated in 4 ml of LB medium (10 g/l tryptone peptone, 5 g/l yeast extract, 1 g/l NaCl) containing 50 μg/ml of ampicillin followed by shake culture at 37° C. overnight. When the cells reached the stationary phase, 4 ml of the culture broth was inoculated into 80 ml of fresh medium of the same composition, followed by shake culture at 37° C. At the point when the cell turbidity (OD600) reached approximately 0.5, 0.5 mM IPTG in a final concentration was added to the cells, followed by shake culture at 18° C. for 20 hours.
The following procedures were all carried out at 4° C. The transformants cultured were collected by centrifugation (5,000×g, 10 minutes) and suspended by adding 1 ml/g cell of lysis buffer (20 mM HEPES buffer (pH 7.5), 14 mM β-mercaptoethanol). Subsequently, the suspension was ultrasonicated (15 secs.×8 times) and then centrifuged (15,000×g, 15 minutes). The supernatant (soluble fraction) obtained was recovered as a crude enzyme solution. The crude enzyme solution was used for enzyme analysis.
Conditions for the enzyme reaction are as follows. […]

On to `COc1cc(C[C@H]2COC(=O)[C@@H]2Cc2cc(O)c(O)c(OC)c2)ccc1O` [thujaplicatin], for which the “lignan methylation activity (methylation of substrate by AsOMT116)” value was “specifically methylates the 5-position”.

Source of the values: patent publication US8435778B2, “Gene encoding lignan methyltransferase and use thereof” (Suntory Holdings Limited, priority 2010, dated 2013).
